{"source": "paper PMC11904993", "about": "“Humanized Candida and NanoBiT Assays Expedite Discovery of Bdf1 Bromodomain Inhibitors With Antifungal Potential” (Advanced Science, 2025)", "key": {"CaBdf1 BD1": {"molecular_target": "T1, CaBdf1 BD1 (Candida albicans, UniProt Q5A4W8)", "T1 construct": "BD1 (residues 193–327) and BD2 (residues 361–501) from CaBdf1 (Uniprot ID Q5A4W8); made in house; host or cells: E. coli BL21(DE3)", "T1 sequence (Q5A4W8 193-327)": "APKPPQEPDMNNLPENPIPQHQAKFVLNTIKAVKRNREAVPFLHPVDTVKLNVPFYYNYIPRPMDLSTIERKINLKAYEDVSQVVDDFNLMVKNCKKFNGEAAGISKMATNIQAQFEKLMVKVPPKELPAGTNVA", "experiment": "HTRF assay, inhibition of H4ac4 peptide binding", "set-up": "species or system C. albicans"}, "CgBdf1 BD2": {"molecular_target": "CgBdf1 BD2 (Candida glabrata, UniProt Q6FWV7)", "sequence (Q6FWV7 entry or part of it)": "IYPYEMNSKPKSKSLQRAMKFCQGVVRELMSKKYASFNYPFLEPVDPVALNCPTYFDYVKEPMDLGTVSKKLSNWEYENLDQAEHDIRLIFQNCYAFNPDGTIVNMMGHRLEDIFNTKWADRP", "experiment": "biochemical", "format": "binding, C. glabrata"}, "[1]": {"tested_on": "C. glabrata expressing humanized Bdf1 (Brd4 BDs)", "experiment": "Growth inhibition in liquid media, humanized C. glabrata strains", "settings": "Fig 3D; 50 µM; humanized BDF1-flag; Exp 1-3", "method": "Growth on Liquid Media with C. glabrata Lab Strains: Cells were grown at 30 °C in SC+M+C‐U medium (SC medium with 5 mM methionine, 0.25 mM cysteine, without uracil) to an OD600 of 0.5–0.8. […] Plates were incubated at 30 °C and OD600 was measured using a Multiskan FC Microplate Photometer (Thermo Fisher)."}, "human Brd4 BD1": {"molecular_target": "human Brd4 BD1 (Homo sapiens, UniProt O60885)", "experiment": "HTRF assay, inhibition of H4ac4 peptide binding", "settings": "for %HTRF Signal hBrd4 BD1: Fig 2E"}, "CaBdf1 BD2": {"molecular_target": "T2, CaBdf1 BD2 (Candida albicans, UniProt Q5A4W8)", "T2 construct": "BD1 (residues 193–327) and BD2 (residues 361–501) from CaBdf1 (Uniprot ID Q5A4W8); made in house; host or cells: E. coli BL21(DE3)", "T2 sequence (Q5A4W8 361-501)": "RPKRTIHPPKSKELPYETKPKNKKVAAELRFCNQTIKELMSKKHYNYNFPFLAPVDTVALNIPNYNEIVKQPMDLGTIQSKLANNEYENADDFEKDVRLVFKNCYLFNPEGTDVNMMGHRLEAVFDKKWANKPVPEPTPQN", "experiment": "HTRF assay, inhibition of H4ac4 peptide binding", "set-up": "species or system C. albicans"}}, "note": "Where “and” joins values, the source holds several entries; their conditions need not be identical. Equal entries are not always repeated. Where two headings read alike, the source gives them in different places."}
{"smiles": "Cc1ccc(-c2nnc(C)c(NCc3ccc(C)o3)n2)cc1", "note": "[Compound 24c, 6‐methyl‐N‐((5‐methylfuran‐2‐yl)methyl)‐3‐(p‐tolyl)‐1,2,4‐triazin‐5‐amine]", "values": [{"measurement": "remaining activity at 0.013 µM", "setting": "CaBdf1 BD1; CaBD1, 24c 0.013 microM, Exp1-2, read-out: Percent HTRF Signal", "value": 94, "unit": "%"}, {"measurement": "remaining activity at 0.033 µM", "setting": "CaBdf1 BD1; CaBD1, 24c 0.033 microM, Exp1-2, read-out: Percent HTRF Signal", "value": 100, "unit": "%"}, {"measurement": "remaining activity at 0.082 µM", "setting": "CaBdf1 BD1; CaBD1, 24c 0.082 microM, Exp1-2, read-out: Percent HTRF Signal", "value": 99.6, "unit": "%"}, {"measurement": "remaining activity at 0.2 µM", "setting": "CaBdf1 BD1; CaBD1, 24c 0.20 microM, Exp1-2, read-out: Percent HTRF Signal", "value": 102, "unit": "%"}, {"measurement": "remaining activity at […]", "setting": "CaBdf1 BD1; CaBD1, 24c 0.51 microM, Exp1-2, read-out: Percent HTRF Signal", "value": 96.9, "unit": "%"}, {"measurement": "remaining activity at 1.28 µM", "setting": "CaBdf1 BD1; CaBD1, 24c 1.28 microM, Exp1-2, read-out: Percent HTRF Signal", "value": 99, "unit": "%"}, {"measurement": "remaining activity at 3.2 µM", "setting": "CaBdf1 BD1; CaBD1, 24c 3.20 microM, Exp1-2, read-out: Percent HTRF Signal", "value": 90.4, "unit": "%"}, {"measurement": "remaining activity at 8 µM", "setting": "CaBdf1 BD1; CaBD1, 24c 8.00 microM, Exp1-2, read-out: Percent HTRF Signal", "value": 85.5, "unit": "%"}, {"measurement": "remaining activity at 20 µM", "setting": "CaBdf1 BD1; CaBD1, 24c 20.00 microM, Exp1-2, read-out: Percent HTRF Signal", "value": 73.3, "unit": "%"}, {"measurement": "inhibition of Bdf1 BD1 from C. albicans", "setting": "CaBdf1 BD1; HTRF, Fig S9C", "value": "weakly inhibited"}, {"measurement": "activity at 0.002 µM", "setting": "CgBdf1 BD2; 24 h, Fig 2E, 0.002 microM, read-out: %HTRF Signal CgBdf1 BD2", "value": 108, "unit": "%"}, {"measurement": "activity at 0.005 µM", "setting": "CgBdf1 BD2; 24 h, Fig 2E, 0.005 microM, read-out: %HTRF Signal CgBdf1 BD2", "value": 102, "unit": "%"}, {"measurement": "activity at 0.013 µM", "setting": "CgBdf1 BD2; 24 h, Fig 2E, 0.013 microM, read-out: %HTRF Signal CgBdf1 BD2", "value": 118, "unit": "%"}, {"measurement": "activity at 0.033 µM", "setting": "CgBdf1 BD2; 24 h, Fig 2E, 0.033 microM, read-out: %HTRF Signal CgBdf1 BD2", "value": 109, "unit": "%"}, {"measurement": "activity at 0.082 µM", "setting": "CgBdf1 BD2; 24 h, Fig 2E, 0.082 microM, read-out: %HTRF Signal CgBdf1 BD2", "value": 99.8, "unit": "%"}, {"measurement": "activity at 0.205 µM", "setting": "CgBdf1 BD2; 24 h, Fig 2E, 0.205 microM, read-out: %HTRF Signal CgBdf1 BD2", "value": 104, "unit": "%"}, {"measurement": "activity at 0.512 µM", "setting": "CgBdf1 BD2; 24 h, Fig 2E, 0.512 microM, read-out: %HTRF Signal CgBdf1 BD2", "value": 101, "unit": "%"}, {"measurement": "activity at 1.28 µM", "setting": "CgBdf1 BD2; 24 h, Fig 2E, 1.280 microM, read-out: %HTRF Signal CgBdf1 BD2", "value": 93.8, "unit": "%"}, {"measurement": "activity at 3.2 µM", "setting": "CgBdf1 BD2; 24 h, Fig 2E, 3.200 microM, read-out: %HTRF Signal CgBdf1 BD2", "value": 83.5, "unit": "%"}, {"measurement": "activity at 8 µM", "setting": "CgBdf1 BD2; 24 h, Fig 2E, 8.000 microM, read-out: %HTRF Signal CgBdf1 BD2", "value": 60.2, "unit": "%"}, {"measurement": "IC50", "setting": "CgBdf1 BD2; Fig 2C original data, analogs of 24, single experiments Exp1-3, read-out: pIC50 CgBD2 (converted)", "value": "13.9 µM and 12 µM and 9.53 µM"}, {"measurement": "IC50", "setting": "CgBdf1 BD2; Fig 2E, mean and s.d., three independent experiments, read-out: IC50 (μM) CgBD2", "value": "11.8 µM and 12 µM"}, {"measurement": "%Growth", "setting": "[1]", "value": "82.6% and 80.3% and 69.6%"}, {"measurement": "IC50", "setting": "human Brd4 BD1", "value": "> 20", "unit": "µM"}, {"measurement": "%HTRF Signal hBrd4 BD1", "setting": "human Brd4 BD1; 0.002 microM", "value": "99.94% and 101.82% and 96.40%"}, {"measurement": "%HTRF Signal hBrd4 BD1", "setting": "human Brd4 BD1; 0.005 microM", "value": "98.75% and 96.86% and 103.69%"}, {"measurement": "%HTRF Signal hBrd4 BD1", "setting": "human Brd4 BD1; 0.013 microM", "value": "99.02% and 101.98% and 101.10%"}, {"measurement": "%HTRF Signal hBrd4 BD1", "setting": "human Brd4 BD1; 0.033 microM", "value": "102.19% and 101.25% and 104.58%"}, {"measurement": "%HTRF Signal hBrd4 BD1", "setting": "human Brd4 BD1; 0.082 microM", "value": "100.31% and 103.86% and 103.22%"}, {"measurement": "%HTRF Signal hBrd4 BD1", "setting": "human Brd4 BD1; 0.205 microM", "value": "99.94% and 102.50% and 103.66%"}, {"measurement": "%HTRF Signal hBrd4 BD1", "setting": "human Brd4 BD1; 0.512 microM", "value": "100.22% and 100.80% and 103.20%"}, {"measurement": "%HTRF Signal hBrd4 BD1", "setting": "human Brd4 BD1; 1.280 microM", "value": "99.57% and 100.99% and 103.81%"}, {"measurement": "%HTRF Signal hBrd4 BD1", "setting": "human Brd4 BD1; 3.200 microM", "value": "98.88% and 63.27% and 99.81%"}, {"measurement": "%HTRF Signal hBrd4 BD1", "setting": "human Brd4 BD1; 8.000 microM", "value": "95.80% and 101.11% and 96.69%"}, {"measurement": "%HTRF Signal hBrd4 BD1", "setting": "human Brd4 BD1; 20.000 microM", "value": "84.01% and 92.12% and 87.26%"}, {"measurement": "remaining activity at 0.013 µM", "setting": "CaBdf1 BD2; CaBD2, 24c 0.013 microM, Exp1-2, read-out: Percent HTRF Signal", "value": 94.3, "unit": "%"}, {"measurement": "remaining activity at 0.033 µM", "setting": "CaBdf1 BD2; CaBD2, 24c 0.033 microM, Exp1-2, read-out: Percent HTRF Signal", "value": 96.5, "unit": "%"}, {"measurement": "remaining activity at 0.082 µM", "setting": "CaBdf1 BD2; CaBD2, 24c 0.082 microM, Exp1-2, read-out: Percent HTRF Signal", "value": 102, "unit": "%"}, {"measurement": "remaining activity at 0.2 µM", "setting": "CaBdf1 BD2; CaBD2, 24c 0.20 microM, Exp1-2, read-out: Percent HTRF Signal", "value": 102, "unit": "%"}, {"measurement": "remaining activity at […]", "setting": "CaBdf1 BD2; CaBD2, 24c 0.51 microM, Exp1-2, read-out: Percent HTRF Signal", "value": 97.5, "unit": "%"}, {"measurement": "remaining activity at 1.28 µM", "setting": "CaBdf1 BD2; CaBD2, 24c 1.28 microM, Exp1-2, read-out: Percent HTRF Signal", "value": 98.1, "unit": "%"}, {"measurement": "remaining activity at 3.2 µM", "setting": "CaBdf1 BD2; CaBD2, 24c 3.20 microM, Exp1-2, read-out: Percent HTRF Signal", "value": 92.6, "unit": "%"}, {"measurement": "remaining activity at 8 µM", "setting": "CaBdf1 BD2; CaBD2, 24c 8.00 microM, Exp1-2, read-out: Percent HTRF Signal", "value": 90.1, "unit": "%"}, {"measurement": "remaining activity at 20 µM", "setting": "CaBdf1 BD2; CaBD2, 24c 20.00 microM, Exp1-2, read-out: Percent HTRF Signal", "value": 74.1, "unit": "%"}, {"measurement": "inhibition of Bdf1 BD2 from C. albicans", "setting": "CaBdf1 BD2; HTRF, Fig S9C", "value": "weakly inhibited"}]}
